{"source": "paper PMC9256669", "about": "“Monomethyl auristatin antibody and peptide drug conjugates for trimodal cancer chemo-radio-immunotherapy” (Nature Communications, 2022)", "molecules": {"B1": {"name": "CDX3379-MMAF: anti-HER3 antibody CDX3379 conjugated to MMAF via MC-VC-PABC linker (conjugate, chains of the INN, looked up)", "VH": "EVQLLESGGGLVQPGGSLRLSCAASGFTFSSYAMSWVRQAPGKGLEWVSAINSQGKSTYYADSVKGRFTISRDNSKNTLYLQMNSLRAEDTAVYYCARWGDEGFDIWGQGTLVTVSS", "VL": "DIQMTQSPSSLSASVGDRVTITCRASQGISNWLAWYQQKPGKAPKLLIYGASSLQSGVPSRFSGSGSGTDFTLTISSLQPEDFATYYCQQYSSFPTTFGQGTKVEIK", "modifications": "MMAF via MC-VC-PABC linker"}}, "key": {"[1]": {"test_system": "A549", "assay": "Cytotoxicity, Alamar Blue assay", "type": "cell-based, human", "conditions": "72 h drug exposure, one value per biological replicate", "description": "(§1) Cells were plated in 96-well plates and exposed to a drug concentration range for 72 h. Alamar Blue was added to the cells and allowed to incubate for 2–4 h at 37 °C. Plates were analyzed using a plate reader with fluorescence measured at 560 nm. Fractional survival was normalized to untreated control cell fluorescent values. Drug IC50 was calculated using Prism software (GraphPad, La Jolla, CA). Cell viability, cytotoxicity and apoptosis were also measured by ApoTox-Glo Triplex Assay (Promega)."}, "[2]": {"test_system": "HCT116", "assay": "Cytotoxicity, Alamar Blue assay", "type": "cell-based, human", "conditions": "72 h drug exposure, one value per biological replicate", "description": "as §1"}, "[3]": {"test_system": "MC38", "assay": "Cytotoxicity, Alamar Blue assay", "type": "cell-based, murine", "description": "(§2) Murine colorectal (MC38 (ENH204-FP)) cancer cell lines were obtained from Kerafast. Murine head and neck MOC1 and MOC2 were generously provided by Dr. R. Uppaluri. CAL27 PIK3CA H1047R expressing cells and 4MOSC1 cells were generated in Dr. Gutkind’s laboratory and previously characterized[42],[55]. […] MC38 cells were cultured in DMEM supplemented with 10% FBS, 1 mM sodium pyruvate (Gibco), 1% non-essential amino acids (Gibco), and 10 mM HEPES (Gibco). MOC1 and MOC2 cells were cultured in IMDM (Lonza)/F-12K nutrient mixture at a 2:1 mixture with 5% FBS, 5 ng/ml EGF (EMD Millipore), 400 ng/ml hydrocortisone (Sigma), and […] insulin (Sigma). On receipt, each cell line was expanded, cryopreserved as low passage stocks, and routinely tested for mycoplasma. Cisplatin (Enzo Biosciences), paclitaxel (Sigma), and MMAE (Concortis) were reconstituted in DMSO. Clinical-grade CDX3379 was provided by Celldex. Clinical grade cetuximab (Erbitux, Lilly Medical) was obtained from UCSD Moores Cancer Center Pharmacy.\nas §1"}, "[4]": {"test_system": "LL2", "assay": "Cytotoxicity, Alamar Blue assay", "type": "cell-based, murine", "description": "as §2, §1"}, "[5]": {"test_system": "B16", "assay": "Cytotoxicity, Alamar Blue assay", "type": "cell-based, murine", "description": "as §2, §1"}, "[6]": {"test_system": "4MOSC1", "assay": "Cytotoxicity, Alamar Blue assay", "type": "cell-based, murine", "description": "as §2, §1"}, "[7]": {"test_system": "MOC2", "assay": "Cytotoxicity, Alamar Blue assay", "type": "cell-based, murine", "description": "as §2, with “Clinical-grade CDX3379 was provided by Celldex.” left out\nas §1\n(§3) measured by Alamar Blue assay. For Alamar Blue assay cytotoxicity, we measured cell viability at 72 hr of […]"}, "[8]": {"test_system": "MOC1", "assay": "Cytotoxicity, Alamar Blue assay", "type": "cell-based, murine", "description": "as §2, with “Clinical-grade CDX3379 was provided by Celldex.” left out\nas §1, §3"}, "[9]": {"test_system": "CAL27", "assay": "Cytotoxicity, Alamar Blue assay", "type": "cell-based, human", "description": "as §2, §1"}, "[10]": {"test_system": "Detroit 562", "assay": "Cytotoxicity, Alamar Blue assay", "type": "cell-based, human", "description": "as §2, §1"}, "[11]": {"test_system": "melanoma and lung cancer models", "conditions": "without radiotherapy; cited from earlier work", "description": "In the last decade, therapeutics targeting immune checkpoint inhibitors (i.e., CTLA-4, PD-1, and PD-L1) have revolutionized cancer care for subsets of oncology patients[24],[25]. There is tremendous interest in developing strategies to further improve immune checkpoint inhibitor responses to wider patient populations. To achieve increasing therapeutic precision, integrating the specificity of ADC with inherent targeting of radiotherapy and immunotherapy is appealing. […] U3-1402 is a HER3-targeted ADC with a topoisomer ..."}, "[12]": {"conditions": "cited from earlier work"}, "[13]": {"test_system": "B16 tumors", "assay": "Subcutaneous tumor therapy, CDX3379-MMAE or CDX3379-MMAF with IR, mouse survival", "type": "in vivo, C57BL/6 mice", "procedure": "MOC1, B16, LL/2, and MC38 tumor cells were injected subcutaneously into the hindlimbs of 6-week-old female C57BL/6 albino mice in 100 µl of 1:1 Matrigel (BD) and PBS solution. Fractionated IR was delivered focally to the tumor-bearing hindlimbs (3 Gy to MC38 tumors and 5 Gy to LL/2 and B16 tumors) as indicated in figure legends using a PXI X-RAD 225 XL irradiator at maximal dose rate of 3 Gy/min with a beam-conditioning aluminum filter (Precision X-ray Irradiation). For RAG1 KO studies, 6-week-old female Rag1^tm1Mom mice were injected subcutaneously with tumor cells in their hindlimbs (Jackson Labs). For CD8 depletion studies, mice were i.p. injected with anti-CD8 (BioXCell #BE0117) at 10 mg/kg on days −6, −5 and −4 tumor cell implant and then weekly starting on day after tumor cells were injected or control antibody. […] Tumor volumes were measured and calculated using the formula as ½ * length * width^2. Mice were sacrificed when tumor volume reached >1500 mm^3, maximal tumor volume approved on our protocol for subcutaneous tumors."}}, "note": "Values joined by “and” are separate entries in the source; they are usually repeats but may differ in a detail not shown here. Equal entries are not always repeated. “Also recorded” adds a separate entry of the source. Where two headings read alike, the source gives them in different places. Non-standard residues stand in square brackets, D forms with d. Residues, ends and D or L forms follow the SMILES beside them. Dolaproine = CO[C@@H]([C@@H]1CCCN1)[C@@H](C)C(=O)O; Dil = CC[C@H](C)[C@H](NC)[C@@H](CC(=O)O)OC; NMeV = CN[C@H](C(=O)O)C(C)C", "data": [{"molecule": "CC(=O)O[C@H]1C(=O)[C@@]2(C)[C@H]([C@H](OC(=O)c3ccccc3)[C@]3(O)C[C@H](OC(=O)[C@H](O)[C@@H](NC(=O)c4ccccc4)c4ccccc4)C(C)=C1C3(C)C)[C@]1(OC(C)=O)CO[C@@H]1C[C@@H]2O", "note": "[Paclitaxel]", "values": [{"measurement": "IC50", "setting": "[1]", "result": "23.3 nM and 15.1 nM"}, {"measurement": "IC50", "setting": "[1]; Homo sapiens, A549, 72 h", "result": 16.6, "unit": "nM"}, {"measurement": "IC50", "setting": "[2]", "result": "2.04 nM and 8.38 nM and 12.4 nM and 9.33 nM"}, {"measurement": "IC50", "setting": "[3]; Mus musculus, MC-38, 72 h, read-out: IC50 values, MC38, 72 h drug exposure, one value per biological replicate", "result": 67, "unit": "nM"}, {"measurement": "IC50", "setting": "[3]; read-out: IC50 values, MC38, 72 h drug exposure, one value per biological replicate", "result": 75.7, "unit": "nM"}, {"measurement": "IC50", "setting": "[4]; Mus musculus, LL/2, 72 h, read-out: IC50 values, LL2, 72 h drug exposure, one value per biological replicate", "result": 15.3, "unit": "nM"}, {"measurement": "IC50", "setting": "[4]; read-out: IC50 values, LL2, 72 h drug exposure, one value per biological replicate", "result": 16.6, "unit": "nM"}, {"measurement": "IC50", "setting": "[5]; Mus musculus, B16, 72 h, read-out: IC50 values, B16, 72 h drug exposure, one value per biological replicate", "result": 6.1, "unit": "nM"}, {"measurement": "IC50", "setting": "[5]; read-out: IC50 values, B16, 72 h drug exposure, one value per biological replicate", "result": 7.8, "unit": "nM"}, {"measurement": "IC50", "setting": "[6]; Mus musculus, 72 h, read-out: IC50 values, 4MOSC1, 72 h drug exposure, one value per biological replicate", "result": 7.65, "unit": "nM"}, {"measurement": "IC50", "setting": "[6]; read-out: IC50 values, 4MOSC1, 72 h drug exposure, one value per biological replicate", "result": 12.9, "unit": "nM"}, {"measurement": "IC50", "setting": "[7]; Mus musculus, 72 h, read-out: IC50 values, MOC2, 72 h drug exposure, one value per biological replicate", "result": 43.5, "unit": "nM"}, {"measurement": "IC50", "setting": "[7]; read-out: IC50 values, MOC2, 72 h drug exposure, one value per biological replicate", "result": 56.4, "unit": "nM"}, {"measurement": "IC50", "setting": "[8]; read-out: IC50 values; MOC1; 72 h drug exposure, Alamar Blue; one value per biological replicate", "result": "45.4 nM and 54.2 nM and 26.8 nM and 24.6 nM"}, {"measurement": "IC50", "setting": "[9]; read-out: IC50 values, 72 h drug exposure, one value per biological replicate", "result": "1.4 nM and 1.52 nM and 3.46 nM and 4.62 nM and 3.12 nM and 3.36 nM"}, {"measurement": "IC50", "setting": "[10]; Homo sapiens, Detroit 562, 72 h, read-out: IC50 values, Detroit 562, 72 h drug exposure, one value per biological replicate", "result": 5.71, "unit": "nM"}, {"measurement": "IC50", "setting": "[10]; read-out: IC50 values, Detroit 562, 72 h drug exposure, one value per biological replicate", "result": "5.94 nM and 3.87 nM and 4.75 nM"}]}, {"molecule": "N.N.[Cl][Pt][Cl]", "note": "[Cisplatin]", "values": [{"measurement": "IC50", "setting": "[1]", "result": "22600 nM and 27200 nM and 13600 nM and 15400 nM"}, {"measurement": "IC50", "setting": "[2]", "result": "42200 nM and 55500 nM"}, {"measurement": "IC50", "setting": "[3]; MC38, 72 h drug exposure, one value per biological replicate, read-out: IC50 values", "result": "3640 nM and 3830 nM"}, {"measurement": "IC50", "setting": "[4]; LL2, 72 h drug exposure, one value per biological replicate, read-out: IC50 values", "result": "1080 nM and 745 nM"}, {"measurement": "IC50", "setting": "[5]; B16, 72 h drug exposure, one value per biological replicate, read-out: IC50 values", "result": "3770 nM and 4490 nM"}, {"measurement": "IC50", "setting": "[6]; 4MOSC1, 72 h drug exposure, one value per biological replicate, read-out: IC50 values", "result": "1370 nM and 1460 nM"}, {"measurement": "IC50", "setting": "[7]; MOC2, 72 h drug exposure, one value per biological replicate, read-out: IC50 values", "result": "8750 nM and 9990 nM"}, {"measurement": "IC50", "setting": "[8]; MOC1; 72 h drug exposure, Alamar Blue; one value per biological replicate; read-out: IC50 values", "result": "13700 nM and 15300 nM and 10400 nM and 10700 nM"}, {"measurement": "IC50", "setting": "[9]; 72 h drug exposure, one value per biological replicate, read-out: IC50 values", "result": "3650 nM and 3760 nM and 7310 nM and 8270 nM and 7270 nM and 6950 nM"}, {"measurement": "IC50", "setting": "[10]; Detroit 562, 72 h drug exposure, one value per biological replicate, read-out: IC50 values", "result": "11500 nM and 9550 nM and 10400 nM and 11800 nM"}]}, {"molecule": "Enapotamab vedotin: AXL-targeted ADC conjugate with an MMAE warhead", "values": [{"measurement": "survival and tumor control", "setting": "[11]", "result": "prolonged mouse survival; also recorded: failed to generate durable tumor control"}]}, {"molecule": "CC[C@H](C)[C@@H]([C@@H](CC(=O)N1CCC[C@H]1[C@H](OC)[C@@H](C)C(=O)N[C@@H](Cc1ccccc1)C(=O)O)OC)N(C)C(=O)[C@@H](NC(=O)[C@@H](NC)C(C)C)C(C)C", "note": "[MMAF, monomethyl auristatin F] (H-[NMeV]V[Dil][Dolaproine]F-OH)", "values": [{"measurement": "cell permeability as free drug", "setting": "[12]", "result": "reduced cell permeability compared to MMAE"}]}, {"molecule": "B1", "values": [{"measurement": "tumor control and survival, + IR", "setting": "[13]; B16, 2.5 nmoles ADC x 2 doses + IR 5 Gy x 3", "result": "CDX3379-MMAE proved to be superior to CDX3379-MMAF"}, {"measurement": "Mouse survival, status", "setting": "[13]; with IR, individual mice, status at the day, Figure 3h", "result": 1}]}]}
